Data reported in patent publication US11304956B2, “Use of 7-bromo-5-(O-chlorophenyl)-3-propoxy-1,2-dihydro-3H-1,4-benzodiazepin-2-one for inhibition of neuropathic pain and seizures of different etiology” (priority 2016, dated 2022).

Tests used:
[1] = test system: formalin test in mice; experiment: Formalin test (licking time of the injected paw); format: in vivo, white male non-linear mice; conditions: for I phase, % effect (decrease in the time of licking of the paw): phase 0-5 min; for II phase, effect (decrease in the time of licking of the paw): phase 15-40 min
[2] = test system: MES-induced seizures; experiment: Maximal electroshock (MES) seizures; format: in vivo, non-linear male mice; conditions: Mus musculus; mice; corneal electrodes 50 Hz, 50 mA, 0.2 s; interval in brackets; read-out: Anticonvulsive activity (ED50), MES
Description: In many cases, the presence of anticonvulsant (antiepileptic) effect of the compounds correlates with analgesic properties on corresponding models of neuralgia. As a general step is a primary screening of new anticonvulsant compounds on rodents with the help of pentylenetetrazole test and MES (maximal electroshock seizures) as they have a qualitative difference in development and manifestations of seizures. It is believed that the compound ability to prevent the MES-induced seizures is connected with impulse spread inhibition throughout the central nervous system. It is believed that the ability to prevent the MES-induced seizures development indicates the potential efficacy of the compound in the preventing propagation of a pulse along the neural tissue (see Tompson E. Medicines. Bioscreening/Under the editorship of A. V. Stefanova.-K.: Avitsenna, 1998.—250 p.).
For MES-induced seizures experimental animals were exposed to electric stimulation through the corneal electrodes (50 Hz, 50 mA for mice during 0.2 s). The number of animals with the maximum tonic extension of the hind limbs, which occurs in almost 100% of the animals in the control group, was calculated. For the statistically significant determination of ED50, 3 doses of the test compound were used; the effect of each dose was studied in 6-8 animals.

[3] = test system: acetic acid "writhing" test; conditions: intraperitoneal administration of acetic acid; earlier work of the applicants; cited from earlier work
[4] = 0.01 mg/kg intraperitoneally 40 min before formalin
[5] = 0.10 mg/kg intraperitoneally 40 min before formalin
[6] = 3.00 mg/kg intraperitoneally 40 min before formalin

Q: For CCCOC1N=C(c2ccccc2Cl)c2cc(Br)ccc2NC1=O (stereo not drawn) [Compound 1, 7-bromo-5-(o-chlorophenyl)-3-propoxy-1,2-dihydro-3H-1,4-benzodiazepin-2-one], which “I phase, % effect (decrease in the time of licking of the paw)” value [1, 4] is on record?
A: Its value is 15.00 ± 4.11%.

Q: And the “II phase, effect (decrease in the time of licking of the paw)” value [1, 4]?
A: Its value is 32.10 ± 10.10.

Q: What about the “I phase, % effect (decrease in the time of licking of the paw)” value [1, 5] of the same compound?
A: The value was 76.00 ± 6.50 %.

Q: What about the “II phase, effect (decrease in the time of licking of the paw)” value [1, 5] of the same compound?
A: The value was 54.00 ± 8.60.

Q: What about the “I phase, % effect (decrease in the time of licking of the paw)” value [1, 6] of the same compound?
A: The value was 91.10 ± 18.80 %.

Q: And the “II phase, effect (decrease in the time of licking of the paw)” value [1, 6]?
A: Its value is 98.4 ± 15.0.

Q: And the “Activity in the first phase relative to diclofenac sodium” value ([1]; Compound 1 at 0.1 mg/kg vs diclofenac sodium at 10 mg/kg, first phase)?
A: Its value is 1.5 times.

Q: What about the ED50 [2] of the same compound?
A: The ED50 was 8.2 mg/kg.

Q: And the “Analgesic activity in the "writhing" test” value [3]?
A: Its value is “high analgesic activity”.
